In publication PMC11378297, “Discovery and Profiling of New Multimodal Phenylglycinamide Derivatives as Potent Antiseizure and Antinociceptive Drug Candidates” (ACS Chemical Neuroscience, 2024):

Tests used:
[1] = tested on: REDs in the medial entorhinal cortex of brain slices from kainate-treated rats; assay: spontaneous recurrent epileptiform discharges (REDs) in brain slices of KA-rats; set-up: species or system rat; settings: 40, 80 and 120 μM, 20 min bath exposure
Method: The effects of (R)-32 on spontaneous recurrent epileptiform discharges (REDs) recorded in the medial entorhinal cortex of a brain slices obtained from rats that had previously experienced kainate-induced status epilepticus (KA-rats) were evaluated at 40, 80, and 120 μM. […] Finally, the average duration, frequency, and amplitude of REDs after a 20 min exposure, and normalized to baseline measurements, is illustrated in Figure 4C for 40, 80, and 120 μM (R)-32. […] Accordingly, no EC50 quantifications were performed.
Figure 4 (R)-32 fails to affect REDs (recurrent epileptiform discharges) at any concentrations tested. (A) Representative traces of REDs recorded before (baseline), in the presence of 80 μM (R)-32, and 20 min after washout. […]
Evaluation of spontaneous recurrent electrographic discharges (REDs) from the medial entorhinal cortex in acute brain slices obtained from Sprague–Dawley rats that had previously experienced kainate-induced status epilepticus (KA-rats) were performed as previously described (West et al., 2018).[90] […] Extracellular field excitatory postsynaptic potentials (fEPSPs) were then recorded from layer II of the medial entorhinal cortex from 8 brain slices simultaneously. Spontaneous REDs were recorded for a 20 min baseline period. […] Data were acquired using pClamp 10.4.2 and analyzed using the included clampfit 10.4 software. […]

[2] = tested on: glutamate and GABA concentrations in brain; assay: glutamate and GABA concentrations in hippocampus and cortex of PTZ-kindled mice; assay type: in vivo, mouse
Text: After behavioral tests (FST, PTZ-induced kindling), we determined the changes in glutamate and GABA concentrations in the hippocampus and cortex. Since exposure to the FST can evoke various neurochemical alterations, two additional groups were employed in this experiment, i.e., control nonkindled mice that were exposed to the FST and naïve mice. No marked differences in both glutamate and GABA concentrations in the hippocampus were observed (Figure 5A). […] We found a significant increase in glutamate concentration in the cortex of mice subjected to the FST (p < 0.05 vs naive mice). […] Given that seizures are typically accompanied by elevated extracellular glutamate levels (an excitatory neurotransmitter), a decreased glutamate concentration in the cortex of kindled animals may appear to be an unexpected outcome. It should be highlighted, however, that the concentrations of glutamate and GABA in tissue homogenates rather than dialysate were measured in brain samples acquired 24 h following the previous PTZ dose, which may have an impact on the outcomes. On the other hand, decreased glutamate levels could be caused by the up-regulation of glutamate transporters, as the expression of glutamate transporters can increase following seizures.[48] For example, an increased expression of hippocampal GLT-1 was observed 24 h after kainic acid-induced status epilepticus in mice and PTZ-induced kindling in rats.[49] Moreover, similar to our findings, Szyndler et al.([50]) found decreased glutamate concentrations, with no changes in GABA concentrations, in homogenates of the hippocampus, striatum, and prefrontal cortex of PTZ-kindled rats.
Figure 5 Changes in glutamate and GABA concentrations in the hippocampus (A) and cortex (B). Data are shown as means + SD (n = 9–14 animals). Statistical significance was evaluated by one-way ANOVA followed by Tukey’s post hoc test: *p < 0.05, **p < 0.01, ***p < 0.001 (GraphPad Prism 8.4.3).
GABA and glutamate concentrations were determined using liquid chromatography tandem mass spectrometry (LC-MS/MS) in the mouse prefrontal cortex and hippocampus. Toronto Research Chemicals Inc. was the source of the standards for both analytes (Toronto, ON, Canada). GABA and glutamate stock standard solutions were made in methanol and deionized water, respectively, and kept cold at 4 °C. The stock solutions were suitably diluted to create a range of solution combinations with the appropriate concentrations. Prior to analysis, a hand-held pestle and glass tube homogenizer (Potter–Elvehjem PTFE pestle and glass tube, Sigma-Aldrich, St. Louis, MO, USA) were used to homogenize mouse brains in distilled water at a ratio of 50 μL/mg. Following a 10 min centrifugation at 8000g for 10 min at 4 °C, homogenates were diluted 10 times with 0.1% formic acid in MeCN from the supernatant. Samples (10 μL) were deproteinized with 80 μL of 0.1% formic acid in MeCN by shaking for 10 min (IKA Vibrax VXR, IKA Werke GmbH & Co. KG, Staufen im Breisgau, Germany) and centrifuged for 5 min at the speed of 8000g (Eppendorf miniSpin centrifuge) after isotope-labeled GABA-d6 and glutamate-d5 (Toronto Research Chemicals Inc., Toronto, ON, Canada) were added as internal standards (10 μL at the concentration of 500 ng/mL). The autosampler vials were filled with the acquired supernatants. […]

SMILES | melting point [°C] | effect on RED parameters (duration, frequency, amplitude) [1] | GABA concentration in the cortex ([2]; 80 mg/kg, p < 0.001 vs PTZ-kindled control group) | glutamate concentration in the cortex (PTZ-kindling-induced decrease) ([2]; 80 mg/kg, p < 0.01 vs PTZ-kindled control group) | glutamate concentration in the hippocampus ([2]; vs nonkindled FST control group)
CC(=O)N[C@@H](C(=O)N1CCN(c2cccc(C(F)(F)F)c2)CC1)c1ccccc1 [(R)-31, (R)-N-(2-Oxo-1-phenyl-2-(4-(3-(trifluoromethyl)phenyl)piperazin-1-yl)ethyl)acetamide] | 112.9 to 113.5 |  |  |  | 
CC(=O)N[C@@H](C(=O)N1CCN(c2cccc(OC(F)(F)F)c2)CC1)c1ccccc1 [(R)-32, (R)-N-(2-Oxo-1-phenyl-2-(4-(3-(trifluoromethoxy)phenyl)piperazin-1-yl)ethyl)acetamide] |  | failed to significantly affect | significantly decreased | reversed this effect | slight decrease
